# pIC50: −log10 of the molar value.
# Tests used:
# A375 + IFNγ (hIDO1) = target: T1, A375 + IFNγ (hIDO1) (Homo sapiens, UniProt P14902); test: cell-based assay, Trp-catabolizing activity in IFNγ-stimulated A375 cells; conditions: IFNγ-stimulated A375 human melanoma cells
# T1 construct: host or cells: A375 cells stimulated with IFNγ
# human IDO1 = target: T2, human IDO1 (Homo sapiens, UniProt P14902); test: human IDO1 biochemical assay (NFK GreenScreen)
# T2 construct: Full-length recombinant human and mouse IDO1 were expressed in Escherichia coli with a hexahistidine tag at the N-terminus; hexahistidine (N); made in house; host or cells: Escherichia coli
# T2 sequence (P14902 whole entry): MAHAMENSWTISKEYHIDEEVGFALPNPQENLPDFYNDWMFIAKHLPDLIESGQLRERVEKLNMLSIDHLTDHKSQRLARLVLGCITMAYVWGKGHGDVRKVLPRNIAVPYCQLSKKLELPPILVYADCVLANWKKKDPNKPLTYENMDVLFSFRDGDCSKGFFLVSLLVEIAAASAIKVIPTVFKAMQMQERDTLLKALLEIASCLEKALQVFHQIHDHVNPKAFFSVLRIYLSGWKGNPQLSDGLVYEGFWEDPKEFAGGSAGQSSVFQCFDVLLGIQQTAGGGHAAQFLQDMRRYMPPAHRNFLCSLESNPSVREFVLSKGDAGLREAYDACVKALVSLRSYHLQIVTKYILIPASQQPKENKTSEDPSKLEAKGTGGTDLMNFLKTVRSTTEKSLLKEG
# human TDO = target: T3, human TDO (Homo sapiens, UniProt P48775); test: human TDO biochemical assay (NFK GreenScreen); conditions: biochemical; highest tested concentration 31.6 µM
# T3 construct: hexahistidine (C); made in house; host or cells: Escherichia coli
# T3 sequence (P48775 whole entry): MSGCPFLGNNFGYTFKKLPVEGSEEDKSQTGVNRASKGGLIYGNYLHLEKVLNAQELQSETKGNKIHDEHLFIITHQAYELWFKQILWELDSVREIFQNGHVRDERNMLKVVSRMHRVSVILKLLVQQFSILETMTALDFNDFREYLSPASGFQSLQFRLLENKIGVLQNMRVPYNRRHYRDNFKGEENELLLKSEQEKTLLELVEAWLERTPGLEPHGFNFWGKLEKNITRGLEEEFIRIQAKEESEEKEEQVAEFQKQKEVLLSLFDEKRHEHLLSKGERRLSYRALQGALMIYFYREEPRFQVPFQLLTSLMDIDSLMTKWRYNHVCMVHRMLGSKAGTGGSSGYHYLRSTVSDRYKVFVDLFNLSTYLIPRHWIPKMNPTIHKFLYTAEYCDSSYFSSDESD
# Protocol: Full-length recombinant human and mouse IDO1 were expressed in Escherichia coli with a hexahistidine tag at the N-terminus, and purified by affinity chromatography to > 95% purity, as described ([8]). Human and mouse TDO containing a C-terminal hexahistidine tag were analogously expressed and purified to > 95% purity ([8]). The inhibitory activity of compounds was determined with the NFK GreenScreen assay technology under the conditions as described ([8]), except for the reaction buffer for IDO1, which was replaced by 50 mM NaH2PO4, pH 7.0, supplemented with 0.01% Tween-20 and 1% glycerol. Inhibition of the CYP3A4 and CYP2D6 enzymes was determined with the P450-Glo™ Screening System with Luciferin-IPA (Promega, #V9920 and V9890). For determination of IC50 values, the effect of inhibitors was determined in 10-point duplicate dose-response curves. Graphs were fitted to a four-parameter logistics equation in XLfit (ID Business Solutions, Ltd., Guildford, UK) from which IC50 values were calculated.
# T1 sequence (P14902 whole entry): as the sequence (P14902 whole entry) above
SMILES,pIC50 (A375 + IFNγ (hIDO1)),pIC50 (human IDO1; biochemical),pIC50 (human IDO1; human IDO1 biochemical assay),activity on human TDO (in words) (human TDO)
O=C1CN(C(=O)c2ccccc2)C(c2cccc(Br)c2)N1O (stereo not drawn) [Compound 1],5.34,5.92,5.91,inactive
O=C1CN(C(=O)c2ccccc2)C(c2ccccc2)N1O (stereo not drawn) [Compound 2a],< 4.50,,< 4.50,
O=C1CN(C(=O)c2ccccc2)C(c2cccc(Cl)c2)N1O (stereo not drawn) [Compound 2b],5.28,,5.62,
O=C1CN(C(=O)c2ccccc2)C(c2ccccc2Br)N1O (stereo not drawn) [Compound 2c],< 4.50,,< 4.50,
O=C1CN(C(=O)c2ccccc2)C(c2ccc(Br)cc2)N1O (stereo not drawn) [Compound 2d],< 4.50,,< 4.50,
O=C1CN(C(=O)c2ccccc2)C(C2CCCCC2)N1O (stereo not drawn) [Compound 2e],< 4.50,,< 4.50,
N#Cc1cccc(C2N(O)C(=O)CN2C(=O)c2ccccc2)c1 (stereo not drawn) [Compound 2f],< 4.50,,4.75,
O=C1CN(C(=O)c2ccccc2)C(c2cccc(C(F)(F)F)c2)N1O (stereo not drawn) [Compound 2g],5.28,,5.61,
O=C1CN(C(=O)c2ccc(F)cc2)C(c2cccc(Br)c2)N1O (stereo not drawn) [Compound 3a],4.96,,5.66,
O=C1CN(C(=O)c2cccc(F)c2)C(c2cccc(Br)c2)N1O (stereo not drawn) [Compound 3b],5.28,,6.04,
O=C1CN(C(=O)c2ccccc2F)C(c2cccc(Br)c2)N1O (stereo not drawn) [Compound 3c],5.94,,6.32,

# Source: publication PMC7876453, “Targeting Indoleamine 2,3-Dioxygenase in Cancer Models Using the Novel Small Molecule Inhibitor NTRC 3883-0” (Frontiers in Immunology, 2021)
